From publication PMC8238522 (Biochemical Journal, 2021)

Experiments:
Experiment in all cases: spectrophotometric NADH formation at […] nm, Hill fit
Assay type in all cases: biochemical
[1] = molecular target: T1, OsPGDH2 (Oryza sativa, UniProt B7FAD2)
T1 sequence (B7FAD2 64-621): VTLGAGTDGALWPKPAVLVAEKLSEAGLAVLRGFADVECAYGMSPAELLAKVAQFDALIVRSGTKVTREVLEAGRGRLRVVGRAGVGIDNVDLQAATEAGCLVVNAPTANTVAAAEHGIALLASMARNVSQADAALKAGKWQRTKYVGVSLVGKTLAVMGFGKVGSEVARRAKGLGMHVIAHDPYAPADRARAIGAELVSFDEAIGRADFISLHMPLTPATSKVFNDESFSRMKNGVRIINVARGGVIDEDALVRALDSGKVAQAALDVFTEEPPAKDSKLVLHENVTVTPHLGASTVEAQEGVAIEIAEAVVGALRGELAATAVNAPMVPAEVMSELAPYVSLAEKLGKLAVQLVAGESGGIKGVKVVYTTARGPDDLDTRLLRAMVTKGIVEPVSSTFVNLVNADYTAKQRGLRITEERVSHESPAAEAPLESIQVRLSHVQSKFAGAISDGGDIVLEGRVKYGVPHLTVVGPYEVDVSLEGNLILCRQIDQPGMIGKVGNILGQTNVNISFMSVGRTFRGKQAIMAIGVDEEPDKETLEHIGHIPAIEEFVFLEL

[2] = molecular target: T2, OsPGDH1 (Oryza sativa, UniProt B7F6I8)
T2 sequence (B7F6I8 68-613): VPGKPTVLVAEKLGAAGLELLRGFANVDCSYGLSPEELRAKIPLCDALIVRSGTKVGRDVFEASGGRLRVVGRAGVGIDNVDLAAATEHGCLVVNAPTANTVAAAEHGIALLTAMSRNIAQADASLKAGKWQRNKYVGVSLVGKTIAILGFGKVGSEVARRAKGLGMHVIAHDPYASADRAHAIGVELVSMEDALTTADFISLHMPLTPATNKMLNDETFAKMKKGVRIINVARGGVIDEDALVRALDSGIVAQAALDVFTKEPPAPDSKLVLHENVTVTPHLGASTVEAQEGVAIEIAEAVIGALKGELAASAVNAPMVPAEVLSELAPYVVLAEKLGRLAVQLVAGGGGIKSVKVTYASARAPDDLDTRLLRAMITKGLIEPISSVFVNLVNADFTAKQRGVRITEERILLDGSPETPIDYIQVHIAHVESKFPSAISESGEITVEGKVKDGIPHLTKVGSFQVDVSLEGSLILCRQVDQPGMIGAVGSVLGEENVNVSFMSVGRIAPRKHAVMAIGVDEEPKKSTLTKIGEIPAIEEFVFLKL

[3] = molecular target: T3, AmtriPGDH1 (Amborella trichopoda, UniProt U5D351)
T3 sequence (U5D351 73-618): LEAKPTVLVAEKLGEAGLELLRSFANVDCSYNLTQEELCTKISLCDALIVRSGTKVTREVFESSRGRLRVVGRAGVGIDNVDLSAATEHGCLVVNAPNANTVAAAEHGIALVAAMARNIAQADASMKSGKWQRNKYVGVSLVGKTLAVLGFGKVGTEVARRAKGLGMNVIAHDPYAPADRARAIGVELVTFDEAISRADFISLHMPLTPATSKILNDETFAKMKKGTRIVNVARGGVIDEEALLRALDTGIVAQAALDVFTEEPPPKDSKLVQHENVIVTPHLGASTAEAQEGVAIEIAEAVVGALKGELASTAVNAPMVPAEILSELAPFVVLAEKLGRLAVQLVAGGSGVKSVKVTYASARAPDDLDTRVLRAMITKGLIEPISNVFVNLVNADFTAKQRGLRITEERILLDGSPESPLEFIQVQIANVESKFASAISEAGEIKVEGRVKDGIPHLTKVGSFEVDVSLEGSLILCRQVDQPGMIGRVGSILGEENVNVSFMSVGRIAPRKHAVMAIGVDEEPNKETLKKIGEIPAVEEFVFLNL

Compound	EC50 [1] [µM]	EC50 [2] [µM]	EC50 [3] [µM]
C[C@H](N)C(=O)O [L-Alanine]	950 ± 40	–	–
N[C@@H](CCS)C(=O)O [L-Homocysteine]	–	33 ± 3	20 ± 2
CSCC[C@H](N)C(=O)O [L-Methionine]	–	640 ± 30	750 ± 50
N[C@@H](CO)C(=O)O [L-Serine]	–	6400 ± 600	1200 ± 100
